How the values were obtained:
Format in all cases: in vivo
Aβ42 [1] = molecular target: T1, Aβ42 (Homo sapiens, UniProt P05067); test: Brain Aβ42 (70% formic acid extract, ELISA) after one week of daily CG injection in PS/APP mice; conditions: 20 mg/kg ip every day for one week, sacrificed at 12 weeks, vehicle 1209 ± 292, not statistically significant
T1 construct: from tissue; host or cells: brain (70% formic acid extract) and plasma of PS/APP transgenic mice
Protocol: (§1) Following a oneweek wash out period, the effect in brain AD level after continuous injection was examined. PS/APP mice were injected every day for one week into the periphery, with either CG (number of mice=3) (20 mg/kg, ip,) or vehicle (phosphate buffered saline) (number of mice=2), at 11 weeks of age, an age when amyloid pathology in the brain is not visible. The mice were sacrificed at 12 weeks of age, an age when amyloid deposition has been initiated and measurable levels of Aβ are present in the vehicle treated controls.
(§2) The levels of Aβ in the peripheral blood were tested at the end of the administration period. The levels of Aβ peptides (e.g., Aβ40 or Aβ42) in the brain and plasma were assessed by ELISA assay. All of the Aβ in the brain (including Aβ in plaques) was extracted in 70% formic acid (FA). The levels of Aβ peptides in CG treated mice were compared with those of vehicle treated controls. […] This correlates with a statistically significant increase in peripheral Aβ40 and Aβ42 at the same time point.

Aβ40 [2] = molecular target: T2, Aβ40 (Homo sapiens, UniProt P05067); test: Brain Aβ40 (70% formic acid extract, ELISA) after one week of daily CG injection in PS/APP mice; conditions: 20 mg/kg ip every day for one week, sacrificed at 12 weeks, vehicle 926 ± 26
T2 construct: from tissue; host or cells: brain (70% formic acid extract) and plasma of PS/APP transgenic mice
Protocol: as §1, §2

Aβ42 [3] = molecular target: T1, Aβ42; test: Plasma Aβ42 level after one week of daily CG injection in PS/APP mice (ELISA); conditions: 20 mg/kg ip every day for one week from 11 weeks of age, vehicle = 100 ± 9
Protocol: as §1, §2

Aβ42 [4] = molecular target: T1, Aβ42; test: Plasma Aβ42 level over time after a single injection of CG in PS/APP mice (ELISA); conditions: single injection 20 mg/kg
Description: In this Example, as in Example 1, transgenic mice that develop AD-related amyloidosis, (i.e., PS/APP mice; See, L. Holcomb et al., 1998, Nature Med., 4(1):97-100) were used to assess the Aβ-binding compound chrysamine G (CG) in the peripheral sequestration of Aβ according to this invention, and to determine how the peripheral sequestration of Aβ by this compound affected brain Aβ levels. CG is known to bind Aβ strongly, and is less brain permeable than GM1.
PS/APP mice at 10 weeks of age were injected once either with CG (number of mice=3, dosage: 20 mg/kg) or vehicle (phosphate buffered saline, number of mice=2) into the blood stream. […] […] The levels of Aβ peptides (Aβ40 or Aβ42) in the plasma were assessed by ELISA immunoassay. The levels of Aβ peptides in the periphery, i.e., plasma, of CG treated mice were compared with plasma Aβ levels in pretreatment mice at various time points.
Changes in plasma load of Aβ42 after injection with CG were compared to the plasma Aβ level at pretreatment time points. As can be observed, there was a significant increase in plasma Aβ levels after injection of CG.

Aβ42 [5] = molecular target: T1, Aβ42; test: Brain Abeta42 load (70% formic acid extract, ELISA) in PS/APP mice after peripheral GM1 or gelsolin; conditions: 1 week wash-out; for brain Abeta load, Abeta42: ip every two days for two weeks from 9 weeks of age, sacrificed at 12 weeks, FA-soluble brain fraction; for brain Abeta42 load compared with controls (vehicle): ip every two days for two weeks, % of vehicle
Protocol: (§3) Transgenic mice that develop AD-related amyloidosis, (i.e., PS/APP mice; See, L. Holcomb et al., 1998, Nature Med., 4(1):97-100) were used for the studies described in this Example to assess how peripheral sequestration of Aβ affected brain Aβ levels. […] In addition, a second compound, gelsolin, which is too large to cross the blood/brain barrier (BBB), and is completely unrelated to GM1, but which is also known to bind Aβ with great avidity, was administered peripherally to confirm the universality of the mechanism.
(§4) PS/APP mice were injected every two days for two weeks either with GM1 (number of mice=6) (15 mg/kg, ip,), with gelsolin (number of mice=3) (60 μg/kg, ip), or with vehicle, (phosphate buffered saline), (number=7), into the periphery at 9 weeks of age, an age when amyloid pathology in the brain is not visible. The mice were left for 1 week without injections (the “wash-out” period) and were then sacrificed at 12 weeks of age, an age when amyloid deposition has been initiated and measurable levels of Aβ are present in the vehicle treated controls.
(§5) The levels of Aβ in the peripheral blood were tested at three time points during the drug administration period (i.e., after 1 week of injections; after two weeks of injections; and after the washout period). Data for the third time point only are shown. The levels of Aβ peptides (Aβ40 or Aβ42) in the brain and plasma were assessed by ELISA assay. All of the Aβ in the brain (including Aβ in plaques) was extracted in 70% formic acid (FA). The levels of Aβ peptides in GM1 or gelsolin treated mice were compared with those of vehicle treated controls.
(§6) This correlates with a statistically significant increase in peripheral Aβ40 and Aβ42 at the same time point. For gelsolin, there was also a significant decrease in Aβ42, which correlated with a statistically significant increase in peripheral Aβ, thus confirming that the general principle of Aβ sequestration in the periphery being linked to reduction of Aβ in the CNS holds true for very different types of compounds that have the unifying property of being able to bind Aβ in the blood.

Aβ = test: GM1 introduced directly into the brain of transgenic mice, Aβ levels
Description: Neither GM1 nor gelsolin is known to cross into the brain from the periphery to any degree. […] This is the first time that such a result has been shown for a peripherally administered compound that is not an antibody. As such, the invention affords a significant advantage to the art by describing and promoting Aβ-binding compounds that require neither penetration of the brain nor the evocation of an immune response, which are potentially harmful and ineffective ways to modulate the risk of AD in human patients.

Aβ40 [6] = molecular target: T2, Aβ40; test: Plasma Abeta40 load (ELISA) in PS/APP mice after peripheral GM1 or gelsolin; conditions: ip every two days for two weeks, third time point (after wash-out), vehicle = 100 ± 21
Protocol: as §3, §4
(§7) The levels of Aβ in the peripheral blood were tested at three time points during the drug administration period (i.e., after 1 week of injections; after two weeks of injections; and after the washout period). […] The levels of Aβ peptides (Aβ40 or Aβ42) in the brain and plasma were assessed by ELISA assay. […]

Aβ42 [7] = molecular target: T1, Aβ42; test: Plasma Abeta42 load (ELISA) in PS/APP mice after peripheral GM1 or gelsolin; conditions: ip every two days for two weeks, third time point (after wash-out), vehicle = 100 ± 7
Protocol: as §3, §4, §7

Aβ40 [8] = molecular target: T2, Aβ40; test: Brain Abeta40 load (70% formic acid extract, ELISA) in PS/APP mice after peripheral GM1 or gelsolin; conditions: 1 week wash-out; for brain Abeta load, Abeta40: ip every two days for two weeks from 9 weeks of age, sacrificed at 12 weeks, FA-soluble brain fraction; for brain Abeta40 load compared with controls (vehicle): ip every two days for two weeks, % of vehicle
Protocol: as §3, §4, §5, §6

T1 sequence (P05067 672-713 limits assumed): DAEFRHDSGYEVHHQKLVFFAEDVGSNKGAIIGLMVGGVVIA
T2 sequence (P05067 672-711 limits assumed): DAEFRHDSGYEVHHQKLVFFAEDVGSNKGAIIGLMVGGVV
Aβ, sequence (P05067 672-711 limits assumed): as above

## O=C([O-])c1cc(N=Nc2ccc(-c3ccc(N=Nc4ccc(O)c(C(=O)[O-])c4)cc3)cc2)ccc1O.[Na+].[Na+] [CG, 5,5′-[(1,1′ biphenyl)-4,4′-diylbis(azo)]bis [2-hydroxybenzoic acid]disodium salt]
Aβ42 [1]
  brain Aβ42: 540 ± 271 fmol/mL
Aβ40 [2]
  brain Aβ40: 541 ± 50 fmol/mL
Aβ42 [3]
  plasma Aβ42 level: 331 ± 10 % of control
Aβ42 [4]; 2.5 hours after injection
  plasma Aβ42 level: 110 ± 8 (p = 0.232) % of pre-treatment time point
Aβ42 [4]; 5 hours after injection
  plasma Aβ42 level: 125 ± 8 (p = 0.049) % of pre-treatment time point
Aβ42 [4]; 7.5 hours after injection
  plasma Aβ42 level: 125 ± 7 (p = 0.034) % of pre-treatment time point
Aβ42 [4]; 24 hours after injection
  plasma Aβ42 level: 112 ± 13 (p = 0.341) % of pre-treatment time point
Aβ42 [4]; 48 hours after injection
  plasma Aβ42 level: 111 ± 10 (p = 0.256) % of pre-treatment time point

## GM1
Aβ42 [5]
  brain Abeta load, Abeta42: 2990 ± 410 fmole/mg protein
  brain Abeta42 load compared with controls (vehicle): 73%
Aβ
  change in Aβ levels: no change in Aβ levels was observed
Aβ40 [6]
  plasma Abeta load, Abeta40: 177 ± 29 fmole/ml plasma
Aβ42 [7]
  plasma Abeta load, Abeta42: 124 ± 11 fmole/ml plasma
Aβ40 [8]
  brain Abeta load, Abeta40: 2147 ± 226 fmole/mg protein
  brain Abeta40 load compared with controls (vehicle): 59%

## gelsolin
Aβ42 [5]
  brain Abeta load, Abeta42: 2473 ± 167 fmole/mg protein
  brain Abeta42 load compared with controls (vehicle): 60%
Aβ40 [6]
  plasma Abeta load, Abeta40: 218 ± 87 fmole/ml plasma
Aβ42 [7]
  plasma Abeta load, Abeta42: 153 ± 35 fmole/ml plasma
Aβ40 [8]
  brain Abeta load, Abeta40: 3473 ± 673 fmole/mg protein
  brain Abeta40 load compared with controls (vehicle): 96%

From patent US20050227941A1, “Sequestration of ass in the periphery in the absence of immunomodulating agent as a therapeutic approach for the treatment or prevention of beta-amyloid related diseases” (priority 2001, published 2005)
